# Read-outs that look alike come from different tables or passages of the source.
# Legend:
# [1] = Cytotoxicity in mouse peritoneal macrophages (resazurin); type: cell-based; conditions: concentration that causes lysis of 50% of BALB/c mouse peritoneal macrophages
# Experimental: To obtain peritoneal macrophages, the mice were sacrificed by cervical dislocation, and the resident cells in the peritoneum were extracted by washing with RPMI (Roswell Park Memorial Institute, Buffalo, NY, USA) medium and cold (4 °C) supplemented with 10% FBS and antibiotics (sodium penicillin 200 IU/mL and streptomycin 200 μg/mL). Cell concentration was calculated using Neubauer chamber counts in an optical microscope (Motic, Xiamen, China) with a 40× objective and 10× eyepieces (400× magnification).
# Cytotoxicity in mouse peritoneal macrophages: Peritoneal macrophages were adjusted to 10^5 macrophages/mL, and 200 μL was seeded per well in a 96-well plate and incubated at 33 °C and 5% CO2 for 2 h. Subsequently, the non-attached cells were discarded, and the monolayer was washed with PBS. The compounds were tested in serial dilutions of 1/2.5 (650–1.0 μM). The treated cultures were incubated for 48 h at 33 °C in a humidified atmosphere containing 5% CO2.
# (§1) Every concentration of the test compounds was assessed in quadruplicate.
# (§2) Cell viability was assessed using the resazurin transformation method. After the incubation period, 20 μL of 3 mM resazurin solution prepared in sterile PBS was added to each well. Reading was performed at 540 nm excitation and 590 nm emission wavelengths after 8 h of incubation in a 96-well plate reader (SUMA®, Habana, Cuba). The mean fluorescence intensity was calculated for each concentration. From the mean values of fluorescence and the corresponding product concentrations, a non-linear fit to the Emax sigmoid model was performed, and the mean inhibitory concentrations (IC50), mean effective concentrations (EC50), and the mean cytotoxic concentration (CC50) were estimated. The selectivity index was calculated as SIp = CC50/IC50 and SIa = CC50/EC50 for the promastigote and amastigote stages, respectively.
# [2] = system: L. amazonensis promastigotes; test: Susceptibility assay in promastigotes, L. amazonensis; type: cell-based; conditions: 72 h, read-out: IC50 ± SD
# Description: (§3) The strains used in this research were MHOM/BR/77/LTB0016 of L. amazonensis from the Pedro Kouri Institute of Tropical Medicine Cuba strains collection, MHOM/FR/78/LEM75 of L. infantum from the Department of Parasitology, Faculty of Pharmacy of the Complutense University of Madrid Spain, and MNYC/BZ/62/M379 of L. mexicana from the Laboratory of Molecular Immunobiochemistry and Heart Diseases UNAM-INC Mexico Research Unit. The parasites were obtained from the skin lesions of previously infected BALB/c mice and maintained at 26 °C in Schneider medium (SIGMA, St. Louis, MO, USA) and supplemented with antibiotics (penicillin sodium 200 IU/mL and streptomycin 200 μg/mL SIGMA, St. Louis, MO, USA) and 10% fetal bovine serum (FBS, SIGMA, St. Louis, MO, USA), and inactivated with heat (56 °C, 30 min). The promastigotes, once isolated, were kept in the exponential multiplication phase by successive subcultures every 3 or 4 days until the time of use.
# (§4) Susceptibility assay in promastigotes: Promastigotes culture in the exponential growth phase were seeded in 96-well plates (10^6 parasites/mL) at a final volume of 200 μL/well. Compounds were tested in serial 1/2.5 dilutions (130–0.2 μM). The treated cultures were incubated for 72 h at 26 °C.
# as §1, §2
# [3] = system: L. infantum promastigotes; test: Susceptibility assay in promastigotes, L. infantum; type: cell-based; conditions: 72 h, read-out: IC50 ± SD
# Description: as §3, §4, §1, §2
# [4] = system: L. mexicana promastigotes; test: Susceptibility assay in promastigotes, L. mexicana; type: cell-based; conditions: 72 h
# Description: as §3, §4, §1, §2
# [5] = system: L. infantum intracellular amastigotes; test: Intracellular amastigote assay, L. infantum; type: cell-based; conditions: read-out: EC50 ± SD
# Description: as §3
# (§5) Intracellular amastigote assay: Macrophages were seeded in 96-well plates at an initial density of 10^5 cells/mL in a final volume of 200 µL per well. After 2 h of incubation at 33 °C and 5% CO2, the cell monolayer was infected with a culture of promastigotes in the stationary phase of growth at a ratio of 10:1 (promastigotes: macrophages) and incubated under the same conditions for 4 h. The compounds were tested in serial dilutions of 1/2.5 (15–0.02 μM). The treated cultures were then incubated for 48 h under similar conditions. After incubation, the RPMI medium was removed and replaced with Schneider’s medium. Cultures were incubated for 72 h at 26 °C to allow the surviving amastigotes to transform into promastigotes and replicate.
# as §1, §2
# [6] = system: amastigotes of L. amazonensis; conditions: cited from earlier work
# [7] = system: L. amazonensis intracellular amastigotes; test: Intracellular amastigote assay, L. amazonensis; type: cell-based; conditions: read-out: EC50 ± SD
# Description: as §3, §5, §1, §2
# [8] = system: L. mexicana intracellular amastigotes; test: Intracellular amastigote assay, L. mexicana; type: cell-based; conditions: Leishmania mexicana, read-out: EC50 ± SD, intracellular amastigotes, L. mexicana
# Description: as §3, §5, §1, §2
# [9] = system: Leishmania spp.; test: Antileishmanial activity, species not separated (pooled statement or literature); type: cell-based; conditions: all Leishmania species; active = IC50 ≤ 1 μM and SI ≥ 10
# [10] = system: promastigotes of L. amazonensis; test: Scanning and transmission electron microscopy of treated promastigotes; type: cell-based; conditions: for Structural damage, scanning electron microscopy: L. amazonensis promastigotes treated at IC50, ½ IC50, ¼ IC50; for Ultrastructural damage, transmission electron microscopy: L. amazonensis promastigotes, 72 h of incubation at IC50, ½ IC50, ¼ IC50
# Description: The concentrations of compounds selected for the study of structural and ultrastructural damage were those corresponding to IC50, ½ IC50, and ¼ IC50 for compound NV8 (reported in this study) and the previously reported compound VATR 131 [21]. The procedure for the treatment of cultures was the same as that described above for the in vitro tests on promastigotes of L. amazonensis. Two negative controls were used: a DMSO-treated culture (0.1%) and an untreated culture.
# At the end of the exposure to the compounds, the parasites were washed once with PBS and immediately fixed with 2.5% glutaraldehyde in PBS for 1 h at room temperature. After a thorough wash with PBS, the parasites were fixed with 1% OsO4 in PBS at 4 °C for 1 h and then washed with PBS. The parasites were dehydrated in increasing concentrations of ethanol. Drying was carried out at the critical point of CO2 in a Samdry 780 apparatus (USA). Next, they were evaporated with gold in a Denton Vacuum Desk (USA). Finally, the samples were observed and micrographed using a JSM 6510LB-JEOL microscope at 30 keV.
# Promastigotes were washed with PBS and fixed with 2.5% glutaraldehyde solution for 1 h at 4 °C. They were then fixed with a solution of 1% OsO4 in the same buffer at 4 °C and in darkness for 1 h. Promastigotes were washed with PBS at RT and dehydrated in an ethanolic solution in increasing order by up to 100%. They were then included in the epoxy resin using specific molds for polymerization and maintained at 60 °C for a minimum period of 72 h. The blocks were cut with an ultramicrotome (Reichert Jung, Austria) into thin sections. The slices were stained with uranyl acetate and lead citrate and subsequently micrographed using a JEM 1400 transmission electron microscope (JEOL, Ltd., Tokyo, Japan).
# [11] = system: L. amazonensis promastigotes; design: method as in PMID 37915499; conditions: promastigotes of L. amazonensis; previously reported compound; cited from earlier work
# [12] = system: Leishmania spp.; conditions: promastigote stage, drug used in the clinic; cited from earlier work
# [13] = BALB/c, mouse, peritoneal macrophages
# [14] = Leishmania amazonensis, promastigotes, L. amazonensis
# [15] = Leishmania infantum, promastigotes, L. infantum
# [16] = Leishmania mexicana, read-out: IC50 ± SD, promastigotes, L. mexicana, 72 h
# [17] = Leishmania infantum, intracellular amastigotes, L. infantum
# [18] = Leishmania amazonensis, intracellular amastigotes, L. amazonensis
# [19] = intracellular amastigotes, L. infantum
SMILES,"CC50 at 48 h [1, 13]","IC50 [2, 14]","IC50 [3, 15]","IC50 [4, 16]","EC50 [5, 17]",EC50 [8],also measured
NCCCOc1nn(Cc2ccccc2)c2ccc([N+](=O)[O-])cc12 [NV9],47.9 ± 10.4 µM,≤ 1 µM,≤ 1 µM,2.8 ± 3 µM,9.71 ± 0.4 µM,–,"IC50 ([2]; promastigotes, L. amazonensis): 0.81 ± 0.17 µM; IC50 ([3]; promastigotes, L. infantum): 0.59 ± 0.16 µM"
C[C@@H](c1nc(-c2ccc(C#N)cc2)cs1)[C@](O)(Cn1cncn1)c1ccc(F)cc1F [ravuconazole],–,–,–,–,–,–,EC50 [6]: 5.11 µM
CNCCOc1nn(Cc2ccccc2)c2ccc([N+](=O)[O-])cc12 [NV13],61.4 ± 9.4 µM,≤ 1 µM,–,–,16.2 ± 0.54 µM,11.6 ± 0.7 µM,"IC50 ([2]; promastigotes, L. amazonensis): 0.82 ± 0.27 µM; EC50 [7, 18]: 5.66 ± 0.53 µM"
O=[N+]([O-])c1ccc2c(c1)c(OCCBr)nn2Cc1ccccc1 [NV11],–,20.7 ± 1.38 µM,20.4 ± 1.3 µM,9.38 ± 0.13 µM,–,–,Classification against promastigotes [9]: inactive
CN(C)CCCOc1nn(Cc2ccccc2)c2ccc([N+](=O)[O-])cc12 [NV6],61 ± 6.9 µM,–,≤ 1 µM,–,≤ 5 µM,–,"IC50 ([3]; promastigotes, L. infantum): 0.69 ± 0.063 µM; EC50 [5, 19]: 3.79 ± 1.46 µM"
CN(C)CCCCCOc1nn(Cc2ccccc2)c2ccc([N+](=O)[O-])cc12 [NV14],2.5 ± 0.7 µM,0.5 ± 0.22 µM,0.93 ± 0.18 µM,–,–,8.2 ± 0.2 µM,–
CC(=O)OCCn1c2ccc([N+](=O)[O-])cc2c(=O)n1Cc1ccccc1 [VATR 131],–,–,–,–,–,–,"Structural damage, scanning electron microscopy [10]: an alteration in the morphology of the parasites was observed from the lowest concentration of the compound; Ultrastructural damage, transmission electron microscopy [10]: very similar to those observed for NV8 at concentrations equivalent to ¼ IC50 and ½ IC50; IC50 [11]: 2.13 µM"
"C[C@@H]1[C@H](O)[C@@H](C)/C=C/C=C/C=C/C=C/C=C/C=C/C=C/[C@H](O[C@@H]2O[C@H](C)[C@@H](O)[C@H](N)[C@@H]2O)C[C@@H]2O[C@](O)(C[C@@H](O)C[C@@H](O)[C@H](O)CC[C@@H](O)C[C@@H](O)CC(=O)O[C@H]1C)C[C@H](O)[C@H]2C(=O)O [AmB, Amphotericin B, reference compound]",–,–,–,0.046 ± 0.012 µM,–,0.036 ± 0.008 µM,CC50 at 48 h [1]: 5.8 ± 0.5 µM; IC50 ([2]; Leishmania amazonensis): 0.03 ± 0.01 µM; IC50 ([3]; Leishmania infantum): 0.28 ± 0.01 µM; EC50 ([7]; Leishmania amazonensis): 0.034 ± 0.006 µM; EC50 ([5]; Leishmania infantum): 0.6 ± 0.21 µM
NCCCCCOc1nn(Cc2ccccc2)c2ccc([N+](=O)[O-])cc12 [NV17],7.74 ± 3 µM,1.01 ± 0.39 µM,–,2.9 ± 0.1 µM,11.8 ± 1.04 µM,–,–
O=[N+]([O-])c1ccc2c(c1)c(OCCCN1CCCCC1)nn2Cc1ccccc1 [NV8],23.2 ± 5 µM,–,–,–,–,–,"Structural damage, scanning electron microscopy [10]: the bodies were completely swollen and spheroidal in appearance; Ultrastructural damage, transmission electron microscopy [10]: most of the parasites are atypical; many are swollen or deformed and present large cytosolic vacuoles"
c1ccc2ncccc2c1 [quinoline],–,–,–,–,–,–,EC50 [6]: 0.54 µM
O=[N+]([O-])c1ccc2c(c1)c(OCCCCCBr)nn2Cc1ccccc1 [NV12],–,2.88 ± 1.47 µM,32.96 ± 0.25 µM,2.8 ± 1.1 µM,–,–,Classification against promastigotes [9]: inactive
O=[N+]([O-])c1ccc2c(c1)c(OCCCCCN1CCCCC1)nn2Cc1ccccc1 [NV16],21.1 ± 7.1 µM,–,1.41 ± 0.03 µM,≤ 1 µM,–,4.29 ± 0.48 µM,"IC50 ([4]; read-out: IC50 ± SD, promastigotes, L. mexicana): 0.5 ± 0.1 µM"
CNCCCCCOc1nn(Cc2ccccc2)c2ccc([N+](=O)[O-])cc12 [NV15],5.6 ± 2.5 µM,1.88 ± 1.34 µM,1.27 ± 0.06 µM,–,–,1.53 ± 0.13 µM,–
CCCCCCCCCCCCCCCCOP(=O)([O-])OCC[N+](C)(C)C [miltefosine],–,–,–,–,–,–,IC50 [12]: 50.7 µM
CN(C)CCOc1nn(Cc2ccccc2)c2ccc([N+](=O)[O-])cc12 [NV4],67.1 ± 8.9 µM,–,≤ 1 µM,2.3 ± 0.4 µM,≤ 5 µM,–,"IC50 ([3]; promastigotes, L. infantum): 0.52 ± 0.05 µM; EC50 [7, 18]: 12.3 ± 0.7 µM; EC50 [5, 19]: 3.42 ± 1.8 µM"
O=[N+]([O-])c1ccc2c(c1)c(OCCN1CCCCC1)nn2Cc1ccccc1 [NV7],24.4 ± 6.7 µM,–,–,–,12.8 ± 0.13 µM,3.1 ± 1.05 µM,"EC50 [7, 18]: 5.61 ± 0.69 µM"
NCCOc1nn(Cc2ccccc2)c2ccc([N+](=O)[O-])cc12 [NV10],46.7 ± 7.7 µM,≤ 1 µM,≤ 1 µM,4.5 ± 0.5 µM,–,–,"IC50 ([2]; promastigotes, L. amazonensis): 0.99 ± 0.14 µM; IC50 ([3]; promastigotes, L. infantum): 0.93 ± 0.27 µM; EC50 [7, 18]: ≤ 5 µM; EC50 ([7]; intracellular amastigotes, L. amazonensis): 4.35 ± 0.9 µM"
N=C(N)c1ccc(OCCCCCOc2ccc(C(=N)N)cc2)cc1 [pentamidine],–,–,–,–,–,–,IC50 [12]: 30 µM
